Patent US9765035B2 (priority 2013, dated 2017)
Read-outs that look alike come from different tables or passages of the source.

Target: human PRMT6 (Homo sapiens, UniProt Q96LA8)
Assay: biochemical
From the text: General Materials. S-adenosylmethionine (SAM), S-adenosylhomocysteine (SAH), bicine, Tween20, dimethylsulfoxide (DMSO), bovine skin gelatin (BSG), sodium butyrate and Tris(2-carboxyethyl)phosphine hydrochloride solution (TCEP) were purchased from Sigma-Aldrich at the highest level of purity possible. ^3H-SAM was purchase from American Radiolabeled Chemicals with a specific activity of 80 Ci/mmol. 384-well streptavidin Flashplates were purchased from PerkinElmer.
Substrates. Peptide representative of human histone H4 residues 36-50 was synthesized with an N-terminal linker-affinity tag motif and a C-terminal amide cap by 21st Century Biochemicals. The peptide was purified by high-performance liquid chromatography (HPLC) to greater than 95% purity and confirmed by liquid chromatography mass spectrometry (LC-MS). The sequence was Biot-Ahx-[…]-amide and contained a monomethylated lysine at position 44 (SEQ ID NO.:5).
Molecular Biology: Full-length human PRMT6 (NM_018137.2) transcript clone was amplified from an HEK 293 cDNA library, incorporating a flanking 5′ sequence encoding a FLAG tag ([…]) (SEQ ID NO.:6) fused directly to Ser 2 of PRMT6 and a 3′ sequence encoding a hexa His sequence (HHHHHH) (SEQ ID NO.: 17) fused directly to Asp 375. The amplified gene was subcloned into pFastBacMam (Viva Biotech).
Protein Expression. Recombinant baculovirus were generated according to Bac-to-Bac kit instructions (Life Technologies). […] Infections were carried out at 37° C. for 48 hours, harvested by centrifugation, and stored at −80° C. for purification.
Protein Purification. […] Column was washed with 20 mM imidazole in the same buffer and Flag-PRMT6-His was eluted with 150 mM imidazole. Pooled fractions were dialysed against buffer Ni-A and further purified by anti-flag M2 affinity chromatography. Flag-PRMT6-His was eluted with 200 ug/ml FLAG peptide in the same buffer. Pooled fractions were dialysed in 20 mM Tris, 150 mM NaCl, 10% glycerol and 5 mM β-mercaptoethanol, pH 7.8. The purity of recovered protein was 95%.
General Procedure for PRMT6 Enzyme Assays on Peptide Substrates. The assays were all performed in a buffer consisting of 20 mM Bicine (pH=7.6), 1 mM TCEP, 0.005% BSG, and 0.002% Tween 20, prepared on the day of use. Compounds in 100% DMSO (1 ul) were spotted into a polypropylene 384-well V-bottom plates (Greiner) using a Platemate Plus outfitted with a 384-channel head (Thermo Scientific). DMSO (1 ul) was added to Columns 11, 12, 23, 24, rows A-H for the maximum signal control and 1 ul of SAH, a known product and inhibitor of PRMT6, was added to columns 11, 12, 23, 24, rows I-P for the minimum signal control. A cocktail (40 ul) containing the PRMT6 enzyme was added by Multidrop Combi (Thermo-Fisher). The compounds were allowed to incubate with PRMT6 for 30 min at room temperature, then a cocktail (10 ul) containing SAM and peptide was added to initiate the reaction (final volume=51 ul). The final concentrations of the components were as follows: PRMT6 was 1 nM, ^3H-SAM was 200 nM, non-radiolabeled SAM was 250 nM, peptide was 75 nM, SAH in the minimum signal control wells was 1 mM, and the DMSO concentration was 2%. The assays were stopped by the addition of non-radiolabeled SAM (10 ul) to a final concentration of 400 uM, which dilutes the ^3H-SAM to a level where its incorporation into the peptide substrate is no longer detectable. 50 ul of the reaction in the 384-well polypropylene plate was then transferred to a 384-well Flashplate and the biotinylated peptides were allowed to bind to the streptavidin surface for at least 1 hour before being washed once with 0.1% Tween20 in a Biotek EL×405 plate washer. The plates were then read in a PerkinElmer TopCount plate reader to measure the quantity of ^3H-labeled peptide bound to the Flashplate surface, measured as disintegrations per minute (dpm) or alternatively, referred to as counts per minute (cpm). […]

[1] = biochemical evaluation, peptide substrate, read-out: PRMT6 IC50
[2] = single experiment or average of multiple experiments, read-out: PRMT6 biochemical evaluation (numerical)
[3] = PRMT6 biochemical evaluation (numerical), single experiment or average of multiple experiments

Chain of human PRMT6 (Q96LA8 with tags, fused parts or gaps): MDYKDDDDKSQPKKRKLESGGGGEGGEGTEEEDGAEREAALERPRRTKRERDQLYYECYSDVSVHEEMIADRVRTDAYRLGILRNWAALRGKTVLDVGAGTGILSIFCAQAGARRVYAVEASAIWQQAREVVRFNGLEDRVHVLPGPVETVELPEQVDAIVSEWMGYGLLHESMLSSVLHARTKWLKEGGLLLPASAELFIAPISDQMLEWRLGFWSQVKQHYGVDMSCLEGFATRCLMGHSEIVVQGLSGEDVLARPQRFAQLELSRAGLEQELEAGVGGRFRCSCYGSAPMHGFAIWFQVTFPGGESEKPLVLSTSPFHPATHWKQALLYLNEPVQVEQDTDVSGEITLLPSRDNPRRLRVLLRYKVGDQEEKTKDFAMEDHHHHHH

SMILES	IC50 [1] [nM]	IC50 [2] [nM]	IC50 [nM]	IC50 [3] [nM]
CNCCN(C)Cc1n[nH]c2cccc(OCCC(O)CO)c12 (stereo not shown) [Compound 40]	1010 to 3000	223	–	–
CNCCN(C)Cc1n[nH]c2cccc(OCCCC(O)CO)c12 (stereo not shown) [Compound 41, 5-((3-((methyl(2-(methylamino)ethyl)amino)methyl)-1H-indazol-4-yl)oxy)pentane-1,2-diol]	1010 to 3000	145	–	–
CNCCN(C)Cc1n[nH]c2ccc(C(C)C)cc12 [Compound 42, N^1-((5-isopropyl-1H-indazol-3-yl)methyl)-N^1,N^2-dimethylethane-1,2-diamine]	< 100	2340	–	–
CNCCN(C)Cc1n[nH]c2ccc(N3CCC4(CCCCC4)CC3)cc12 [Compound 43, N^1-((5-(3-azaspiro[5.5]undecan-3-yl)-1H-indazol-3-yl)methyl)-N^1,N^2-dimethylethane-1,2-diamine]	–	–	< 100	1800
CNCCN(C)Cc1n[nH]c2ccc(C3CCOCC3)cc12 [Compound 44, N^1,N^2-dimethyl-N^1-((5-(tetrahydro-2H-pyran-4-yl)-1H-indazol-3-yl)methyl)ethane-1,2-diamine]	< 100	72	–	–
CNCCN(C)Cc1n[nH]c2ccc(C3=CCOCC3)cc12 [Compound 45]	< 100	58.1	–	–
CNCCN(C)Cc1n[nH]c2ccc(N3CCCCC3)cc12 [Compound 46, N^1,N^2-dimethyl-N^1-((5-(piperidin-1-yl)-1H-indazol-3-yl)methyl)ethane-1,2-diamine]	< 100	40.6	–	–
CNCCN(C)Cc1n[nH]c2ccc(C3CCCCC3)cc12 [Compound 47, N^1-((5-cyclohexyl-1H-indazol-3-yl)methyl)-N^1,N^2-dimethylethane-1,2-diamine]	< 100	74.3	–	–
CNCCN(C)Cc1n[nH]c2ccc(C3=CCCCC3)cc12 [Compound 48]	< 100	65.6	–	–
CNCCN(C)Cc1n[nH]c2ccc(Oc3ccccc3C(F)(F)F)cc12 [Compound 49]	3010 to 10000	51.9	–	–
CNCCN(C)Cc1n[nH]c2ccc(OCC3CCOCC3)cc12 [Compound 50]	3010 to 10000	45	–	–
CNCCN(C)Cc1n[nH]c2ccc(OCC3CCN(C(C)=O)CC3)cc12 [Compound 51]	1010 to 3000	> 10000	–	–
CNCCN(C)Cc1n[nH]c2ccc(OCC3CCCC3)cc12 [Compound 52]	1010 to 3000	6020	–	–
CNCCN(C)Cc1c2cc(OCc3ccc(C#N)cc3)ccc2nn1C1CCOCC1 [Compound 53]	1010 to 3000	2550	–	–
CNCCN(C)Cc1n[nH]c2ccc(OCC3CCCCC3)cc12 [Compound 54]	101 to 1000	2330	–	–
CNCCN(C)Cc1n[nH]c2ccc(Oc3ccc(C)cc3)cc12 [Compound 55]	101 to 1000	1020	–	–
CNCCN(C)Cc1n[nH]c2ccc(Oc3ccccc3OC(C)C)cc12 [Compound 56]	101 to 1000	774	–	–
CNCCN(C)Cc1n[nH]c2ccc(Oc3ccc(Cl)cc3)cc12 [Compound 57]	101 to 1000	479	–	–

SMILES	IC50 [1] [nM]	IC50 [2] [nM]	IC50 [nM]	IC50 [3] [nM]
CNCCN(C)Cc1n[nH]c2ccc(OC3CCN(C(C)=O)CC3)cc12 [Compound 58, 1-(4-((3-((methyl(2-(methylamino)ethyl)amino)methyl)-1H-indazol-5-yl)oxy)piperidin-1-yl)ethan-1-one]	101 to 1000	447	–	–
CNCCN(C)Cc1n[nH]c2ccc(Oc3ccc(OC)cc3)cc12 [Compound 59]	–	–	101 to 1000	306
CNCCN(C)Cc1n[nH]c2ccc(Oc3ccccc3C)cc12 [Compound 60]	101 to 1000	243	–	–
CNCCN(C)Cc1n[nH]c2ccc(Oc3ccc(OC(C)C)cc3)cc12 [Compound 61]	101 to 1000	236	–	–
CNCCN(C)Cc1nn(C(C)C)c2ccc(OCc3ccc(C#N)cc3)cc12 [Compound 62]	101 to 1000	191	–	–
CCOc1ccc2[nH]nc(CN(C)CCNC)c2c1 [Compound 63]	101 to 1000	164	–	–
CNCCN(C)Cc1n[nH]c2ccc(OC(C)C)cc12 [Compound 64]	< 100	107	–	–
CCCOc1ccc2[nH]nc(CN(C)CCNC)c2c1 [Compound 65]	< 100	105	–	–
CNCCN(C)Cc1n[nH]c2ccc(OCc3cccc(C(N)=O)c3)cc12 [Compound 66]	< 100	56.4	–	–
CNCCN(C)Cc1n[nH]c2ccc(Oc3cccc(OC(C)C)c3)cc12 [Compound 67]	< 100	56.2	–	–
CNCCN(C)Cc1n[nH]c2ccc(OCc3ccc(C(F)(F)F)cc3)cc12 [Compound 68]	< 100	39.7	–	–
CNCCN(C)Cc1n[nH]c2ccc(OCc3ccc(C(N)=O)cc3)cc12 [Compound 69]	< 100	34.2	–	–
CNCCN(C)Cc1n[nH]c2ccc(OCc3cccc(NC(C)=O)c3)cc12 [Compound 70]	< 100	15.1	–	–
CNCCN(C)Cc1n[nH]c2ccc(OCc3ccc(C(C)(C)C)cc3)cc12 [Compound 71]	< 100	13.1	–	–
CNCCN(C)Cc1n[nH]c2ccc(OCc3cccc(C(F)(F)F)c3)cc12 [Compound 72]	< 100	12.7	–	–
CNCCN(C)Cc1n[nH]c2ccc(OCc3cccc(C(C)=O)c3)cc12 [Compound 73]	< 100	9.49	–	–
CNCCN(C)Cc1n[nH]c2ccc(OCc3cccc(C(C)(C)C)c3)cc12 [Compound 74]	< 100	9.09	–	–
